Test results as given in the supplement of paper PMC6045584.
± gives the standard deviation of the averaged measurements.

How the values were obtained:
SNX-5422 [1] = compound: T1, CC1(C)CC(=O)c2c(C(F)(F)F)nn(-c3ccc(C(N)=O)c(N[C@H]4CC[C@H](OC(=O)CN)CC4)c3)c2C1 [SNX-5422]; test: surviving fraction relative to DMSO-only wells; higher = less growth inhibition; conditions: exposure time: 5 days
Procedure, shortened: (§1)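 After seeding at 250–500 cells per well in 384-well plates and a 24-hour wait, log-phase tumour cell lines were exposed without interruption for five days to inhibitors at 0.5, 1, 5, 10, 50, 100, 500 and 1000 nM. CellTiter-Glo luminescence was recorded after 10 minutes at room temperature. Viability is reported as surviving fraction, the luminescence normalised to the median of DMSO-only wells.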

BI-2536 [2] = compound: T2, CC[C@@H]1C(=O)N(C)c2cnc(Nc3ccc(C(=O)NC4CCN(C)CC4)cc3OC)nc2N1C1CCCC1 [BI-2536]; test: as above; conditions: exposure time: 5 days
Procedure, shortened: as §1

TIOGUANINE [3] = compound: T3, Nc1nc2[nH]cnc2c(=S)[nH]1 [TIOGUANINE]; test: as above; conditions: exposure time: 5 days
Procedure, shortened: as §1

[4] = compound: Cn1cc(C2=Nc3cc(NC(=O)C(N)C4CCCCC4)cc4c3C2=CNNC4=O)cn1; test: as above; conditions: exposure time: 5 days
Procedure, shortened: as §1

CANERTINIB = compound: C=CC(=O)Nc1cc2c(Nc3ccc(F)c(Cl)c3)ncnc2cc1OCCCN1CCOCC1 [CANERTINIB]; test: as above; conditions: exposure time: 5 days
Procedure, shortened: as §1

AFATINIB [5] = compound: T4, CN(C)C/C=C/C(=O)Nc1cc2c(Nc3ccc(F)c(Cl)c3)ncnc2cc1O[C@H]1CCOC1 [AFATINIB]; test: as above; conditions: exposure time: 5 days
Procedure, shortened: as §1

SAPACITABINE = compound: CCCCCCCCCCCCCCCC(=O)Nc1ccn([C@@H]2O[C@H](CO)[C@@H](O)[C@@H]2C#N)c(=O)n1 [SAPACITABINE]; test: as above; conditions: exposure time: 5 days
Procedure, shortened: as §1

MDV3100 = compound: CNC(=O)c1ccc(N2C(=S)N(c3ccc(C#N)c(C(F)(F)F)c3)C(=O)C2(C)C)cc1F [MDV3100]; test: as above; conditions: exposure time: 5 days
Procedure, shortened: as §1

SNX-5422 [6] = compound: T1, SNX-5422; test: area under dose-response curve of surviving fraction (unscaled, Aref=0) (surviving fraction x log10(nM)); higher = more resistant; conditions: exposure time: 5 days; dose range 0.5-1000 nM
Procedure, shortened: (§2)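 Tumour cell lines in 384-well plates were exposed for five days to eight inhibitor concentrations from 0.5 to 1000 nM. Viability was read by CellTiter-Glo luminescence, normalised to DMSO-only wells, in three screens per line. Dose-response survival curves were fitted to surviving fractions by 3-parameter logistic regression in the drc R package. Area under the curve is the unscaled activity area (Aref = 0) over log10 dose.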

BI-2536 [7] = compound: T2, BI-2536; test: as above; conditions: exposure time: 5 days; dose range 0.5-1000 nM
Procedure, shortened: as §2

TIOGUANINE [8] = compound: T3, TIOGUANINE; test: as above; conditions: exposure time: 5 days; dose range 0.5-1000 nM
Procedure, shortened: as §2

[9] = compound: Cn1cc(C2=Nc3cc(NC(=O)C(N)C4CCCCC4)cc4c3C2=CNNC4=O)cn1; test: as above; conditions: exposure time: 5 days; dose range 0.5-1000 nM
Procedure, shortened: as §2

AFATINIB [10] = compound: T4, AFATINIB; test: as above; conditions: exposure time: 5 days; dose range 0.5-1000 nM
Procedure, shortened: as §2

With SG28 HEADNECK as the test system, how does the surviving fraction (SNX-5422 [1]; 0.5 nM) read?
The surviving fraction was 1.05 ± 0.11.

And the surviving fraction (SNX-5422 [1]; 1 nM)?
The surviving fraction was 1.12 ± 0.019.

What about the surviving fraction (SNX-5422 [1]; 5 nM) of the same test system?
The surviving fraction was 1 ± 0.076.

And the surviving fraction (SNX-5422 [1]; 10 nM)?
The surviving fraction was 1 ± 0.071.

And the surviving fraction (SNX-5422 [1]; 50 nM)?
Its surviving fraction is 0.598 ± 0.042.

And the surviving fraction (SNX-5422 [1]; 100 nM)?
Its surviving fraction is 0.299 ± 0.023.

And the surviving fraction (SNX-5422 [1]; 500 nM)?
Its surviving fraction is 0.117 ± 0.019.

And the surviving fraction (SNX-5422 [1]; 1000 nM)?
The surviving fraction was 0.125 ± 0.015.

And the surviving fraction (BI-2536 [2]; 0.5 nM)?
Its surviving fraction is 1.19 ± 0.14.

And the surviving fraction (BI-2536 [2]; 1 nM)?
The surviving fraction was 1.063 ± 0.0017.

What about the surviving fraction (BI-2536 [2]; 5 nM) of the same test system?
Its surviving fraction is 0.864 ± 0.04.

What about the surviving fraction (BI-2536 [2]; 10 nM) of the same test system?
Its surviving fraction is 0.87 ± 0.046.

What about the surviving fraction (BI-2536 [2]; 50 nM) of the same test system?
Its surviving fraction is 0.961 ± 0.11.

And the surviving fraction (BI-2536 [2]; 100 nM)?
The surviving fraction was 0.687 ± 0.064.

And the surviving fraction (BI-2536 [2]; 500 nM)?
The surviving fraction was 0.478 ± 0.084.

What about the surviving fraction (BI-2536 [2]; 1000 nM) of the same test system?
Its surviving fraction is 0.279 ± 0.053.

What about the surviving fraction (TIOGUANINE [3]; 0.5 nM) of the same test system?
The surviving fraction was 1.07 ± 0.045.

What about the surviving fraction (TIOGUANINE [3]; 1 nM) of the same test system?
The surviving fraction was 1.05 ± 0.14.

What about the surviving fraction (TIOGUANINE [3]; 5 nM) of the same test system?
The surviving fraction was 1.01 ± 0.14.

What about the surviving fraction (TIOGUANINE [3]; 10 nM) of the same test system?
The surviving fraction was 0.994 ± 0.076.

And the surviving fraction (TIOGUANINE [3]; 50 nM)?
The surviving fraction was 1.06 ± 0.089.

And the surviving fraction (TIOGUANINE [3]; 100 nM)?
The surviving fraction was 1.05 ± 0.12.

And the surviving fraction (TIOGUANINE [3]; 500 nM)?
Its surviving fraction is 1.02 ± 0.038.

And the surviving fraction (TIOGUANINE [3]; 1000 nM)?
The surviving fraction was 1.14 ± 0.082.

What about the surviving fraction ([4]; 0.5 nM) of the same test system?
Its surviving fraction is 0.971 ± 0.052.

What about the surviving fraction ([4]; 1 nM) of the same test system?
The surviving fraction was 1.04 ± 0.14.

What about the surviving fraction ([4]; 5 nM) of the same test system?
Its surviving fraction is 0.991 ± 0.044.

What about the surviving fraction ([4]; 10 nM) of the same test system?
Its surviving fraction is 1.01 ± 0.047.

And the surviving fraction ([4]; 50 nM)?
Its surviving fraction is 0.83 ± 0.029.

And the surviving fraction ([4]; 100 nM)?
The surviving fraction was 0.661 ± 0.022.

What about the surviving fraction ([4]; 500 nM) of the same test system?
The surviving fraction was 0.427 ± 0.012.

What about the surviving fraction ([4]; 1000 nM) of the same test system?
Its surviving fraction is 0.317 ± 0.026.

What about the surviving fraction (CANERTINIB; 0.5 nM) of the same test system?
Its surviving fraction is 0.824 ± 0.055.

What about the surviving fraction (CANERTINIB; 1 nM) of the same test system?
Its surviving fraction is 0.803 ± 0.046.

And the surviving fraction (CANERTINIB; 5 nM)?
The surviving fraction was 0.627 ± 0.081.

What about the surviving fraction (CANERTINIB; 10 nM) of the same test system?
Its surviving fraction is 0.621 ± 0.089.

And the surviving fraction (CANERTINIB; 50 nM)?
The surviving fraction was 0.642 ± 0.0092.

What about the surviving fraction (CANERTINIB; 100 nM) of the same test system?
The surviving fraction was 0.498 ± 0.059.

And the surviving fraction (CANERTINIB; 500 nM)?
The surviving fraction was 0.364 ± 0.073.

What about the surviving fraction (CANERTINIB; 1000 nM) of the same test system?
The surviving fraction was 0.366 ± 0.021.

What about the surviving fraction (AFATINIB [5]; 0.5 nM) of the same test system?
The surviving fraction was 0.907 ± 0.056.

And the surviving fraction (AFATINIB [5]; 1 nM)?
The surviving fraction was 0.828 ± 0.089.

What about the surviving fraction (AFATINIB [5]; 5 nM) of the same test system?
Its surviving fraction is 0.669 ± 0.083.

What about the surviving fraction (AFATINIB [5]; 10 nM) of the same test system?
The surviving fraction was 0.523 ± 0.056.

What about the surviving fraction (AFATINIB [5]; 50 nM) of the same test system?
The surviving fraction was 0.441 ± 0.052.

And the surviving fraction (AFATINIB [5]; 100 nM)?
Its surviving fraction is 0.452 ± 0.057.

And the surviving fraction (AFATINIB [5]; 500 nM)?
The surviving fraction was 0.342 ± 0.029.

What about the surviving fraction (AFATINIB [5]; 1000 nM) of the same test system?
The surviving fraction was 0.259 ± 0.035.

What about the surviving fraction (SAPACITABINE; 0.5 nM) of the same test system?
The surviving fraction was 0.756 ± 0.14.

What about the surviving fraction (SAPACITABINE; 1 nM) of the same test system?
The surviving fraction was 0.629 ± 0.18.

And the surviving fraction (SAPACITABINE; 5 nM)?
The surviving fraction was 0.721 ± 0.26.

What about the surviving fraction (SAPACITABINE; 10 nM) of the same test system?
Its surviving fraction is 0.216 ± 0.099.

And the surviving fraction (SAPACITABINE; 50 nM)?
Its surviving fraction is 0.996 ± 0.12.

What about the surviving fraction (SAPACITABINE; 100 nM) of the same test system?
Its surviving fraction is 0.864 ± 0.054.

And the surviving fraction (SAPACITABINE; 500 nM)?
Its surviving fraction is 0.934 ± 0.11.

And the surviving fraction (SAPACITABINE; 1000 nM)?
Its surviving fraction is 0.422 ± 0.0014.

And the surviving fraction (MDV3100; 0.5 nM)?
The surviving fraction was 1.19 ± 0.035.

And the surviving fraction (MDV3100; 1 nM)?
Its surviving fraction is 1.06 ± 0.0078.

And the surviving fraction (MDV3100; 5 nM)?
Its surviving fraction is 1.02 ± 0.086.

What about the surviving fraction (MDV3100; 10 nM) of the same test system?
The surviving fraction was 0.762 ± 0.034.

What about the surviving fraction (MDV3100; 50 nM) of the same test system?
Its surviving fraction is 0.949 ± 0.062.

What about the surviving fraction (MDV3100; 100 nM) of the same test system?
Its surviving fraction is 1.01 ± 0.06.

And the surviving fraction (MDV3100; 500 nM)?
Its surviving fraction is 1.11 ± 0.067.

And the surviving fraction (MDV3100; 1000 nM)?
Its surviving fraction is 0.946 ± 0.13.

And the “area under dose-response curve” value (SNX-5422 [6])?
Its value is 2.19.

And the “area under dose-response curve” value (BI-2536 [7])?
Its value is 2.69.

And the “area under dose-response curve” value (TIOGUANINE [8])?
Its value is 3.45.

And the “area under dose-response curve” value [9]?
Its value is 2.64.

And the “area under dose-response curve” value (AFATINIB [10])?
The value was 1.78.
